Key:
displaced cells = details: pre-determined period, then calcium containing medium containing cortisone
From the text: The erythroid progenitors can be cultured and expanded for long periods of time and may be used in the treatment red blood disorder and red blood shortages.

[1] = system: enriched, purified, normal B lymphocytes; test: Flow cytometry of enriched, purified, normal B lymphocytes treated with one of three agents (FIG. 20); assay type: cell-based, human; details: compared with the negative control
Protocol: Initial studies actually identified three agents—granulocyte/monocyte-colony stimulating factor (GM-CSF), erythropoietin and mAb CR3/43. A preparation of enriched, purified, normal B lymphocytes was treated in a device according to the present invention with one of these three agents in a similar manner to that described for CR3/43 and TAL.1B5 above and treated samples examined by flow cytometry as described above. […] In particular, all three agents increased the relative number of CD34^+ cells in the cell population (see FIG. 20).

| Molecule | retrodifferentiation of more committed cells (displaced cells) | relative number of CD34+ cells in the cell population (FIG. 20) [1] |
| --- | --- | --- |
| O=C(O)CN(CCN(CC(=O)O)CC(=O)O)CC(=O)O [EDTA] | caused more committed cells to retrodifferentiate into undifferentiated cells | – |
| GM-CSF: granulocyte/monocyte-colony stimulating factor, haematopoietic growth factor | – | increased |

— US8163536B2, “Device for preparing an undifferentiated cell from a more committed cell” (Tristem Trading (Cyprus) Limited, priority 2000, dated 2012)
